Here are results for 21 compounds from patent US10828301B2, “2,4-pyrimidinediamine compounds and their uses” (Rigel Pharmaceuticals, Inc, priority 2002, dated 2020).

Common to all, as to format: cell-based
Assay [1] deals with ionophore-induced degranulation of mast and/or basophil cells. Nature of the assay: Ionophore (ionomycin or A23187)-induced degranulation counter screen. The note with it: high density BMMC, ionomycin activation, hexosaminidase release, read-out: BMMC Ionomycin Hexos. IC50. The text has this: In addition to the FcεRI or FcγRI degranulation pathways discussed above, degranulation of mast and/or basophil cells can be induced by other agents. For example, ionomycin, a calcium ionophore that bypasses the early FcεRI or FcγRI signal transduction machinery of the cell, directly induces a calcium flux that triggers degranulation. Referring again to FIG. 2, activated PLCγ initiates pathways that lead to, among other things, calcium ion mobilization and subsequent degranulation. As illustrated, this Ca^2+ mobilization is triggered late in the FcεRI signal transduction pathway. […] Other ionophores that induce degranulation in this manner include A23187. The ability of granulation-inducing ionophores such as ionomycin to bypass the early stages of the FcεRI and/or FcγRI signaling cascades may be used as a counter screen to identify active compounds of the invention that specifically exert their degranulation-inhibitory activity by blocking or inhibiting the early FcεRI or FcγRI signaling cascades, as discussed above.
Assays suitable for determining the IC50 of ionophore-induced degranulation include any of the previously-described degranulation assays, with the modification that the cells are stimulated or activated with a degranulation-inducing calcium ionophore such as ionomycin or A23187 (A.G. Scientific, San Diego, Calif.) instead of anti-IgE antibodies or an IgE-specific allergen. Specific assays for assessing the ability of a particular 2,4-pyrimidinediamine compound of the invention to inhibit ionophore-induced degranulation are provided in the Examples section.
For orientation: A counterscreen serves to expose hits that act by an unwanted route or on another target.

For assay [2], the system named is bone marrow derived mast cells (BMMC). Nature of the assay: BMMC high cell density IgE activation: degranulation (hexosiminidase, histamine), leukotriene (LTC4) and cytokine (TNFalpha, IL-6) assays. As to conditions: Mus musculus, anti-IgE activation. The protocol:
After sensitizing, cells are counted, pelleted (1000 rpm, 5-10 minutes), and resuspended at 1-3×10^6 cells/ml in MT buffer. Add 100 ul of cell suspension to each well and 100 ul of compound dilutions. The final vehicle concentration is 0.5% DMSO. Incubate at 37° C. (5% CO2) for 1 hour. After 1 hour of compound treatment, stimulate cells with 6× stimulus (60 ng/ml DNP-BSA). Mix wells with the cells and allow plates to incubate at 37° C. (5% CO2) for one hour. After 1 hour incubation, pellet cells (10 minutes, 1000 RPM) and collect 200 ul per well of the supernatant, being careful not to disturb pellet, and transfer to a clean tube or 96-well plate. Place the supernatant plate on ice. During the 4-5 hour step (see next) perform the hexosiminidase assay. Resuspend cell pellet in 240 ul WEI-conditioned media containing 0.5% DMSO and corresponding concentration of compound. Incubate BMMC cells for 4-5 hours at 37° C. (5% CO2). After incubation, pellet cells (1000 RPM, 10 minutes) and collect 225 ul per well and place in −80° C. until ready to perform ELISAS. ELISAS are performed on appropriately diluted samples (determined empirically for each donor cell population so that the sample measurement falls within the standard curve) following the supplier's instructions.
Add 50 uL of BMMC cell supernatant (see above) to the hexoseaminidase substrate, place at 37° C. for 30 minutes and read the plate at 5, 10, 15, and 30 minutes on a spectrophotometer.

Assay [3] deals with cultured human mast cells (CHMC). Nature of the assay: CHMC low cell density ionomycin activation: tryptase assay. The note with it: Homo sapiens, Mast cell, Low Density CHMC, ionomycin activation.
For assay [4] the test system is unchanged. Nature of the assay: CHMC low cell density IgE activation: tryptase and LTC4 assays. As to conditions: Homo sapiens, Mast cell, Low Density CHMC, anti-IgE activation. In outline:
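Degranulation measured after 30 min anti-IgE challenge at 37° C of CHMC plated at 1000-1500 cells/well following 1 h preincubation. Readouts: LTC4 by ELISA on donor-specific diluted supernatants, and tryptase activity from a 30 min room-temperature substrate reaction.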

Setting [5] is: hexosaminidase release, read-out: BMMC anti-IgE hexos IC50.
The mark [6] stands for this setting: hexosaminidase readout, read-out: CHMC anti-IgE Hexos.
Where [7] appears, read: IL-6 release, read-out: BMMC anti-IgE IL-6 IC50.
Setting [8] is: LTC4 release, read-out: BMMC anti-IgE LTC4 IC50.
Where [9] appears, read: TNF-alpha release, read-out: BMMC anti-IgE TNF-alpha IC50.
[10] abbreviates: histamine release, read-out: BMMC anti-IgE histamine IC50.
The mark [11] stands for this setting: tryptase readout, read-out: CHMC Ionomycin Tryptase.
Where [12] appears, read: tryptase readout, read-out: CHMC anti-IgE Tryptase.

Like-named read-outs stand apart in the source and are kept apart here. Where only a bound is given, the exact number is not on record here.

Take `CCOc1ccc(Nc2ncc(F)c(Nc3ccc(OC)c(OC)c3)n2)cc1` [Compound R926145, N4-(3,4-Dimethoxyphenyl)-N2-(4-ethoxyphenyl)-5-fluoro-2,4-pyrimidinediamine]: the IC50 is 8.8 µM in assay [1] (Mus musculus); 2.4 µM in assay [2] (setting [5]); > 10 µM in assay [3] (hexosaminidase readout, read-out: CHMC Ionomycin Hexos.); 4.76 µM in assay [4] (setting [6]).

Turning to `CCOc1ccc(Nc2ncc(C)c(Nc3ccc(OCC)cc3)n2)cc1` [Compound R926068, N2,N4-Bis(4-ethoxyphenyl)-5-methyl-2,4-pyrimidinediamine], the values for the IC50 in assay [1] (Mus musculus), in assay [2] (setting [5]) and in assay [4] (setting [6]) were 8.2 µM, 7.4 µM and > 10 µM, respectively.

As to `O=C1COc2ccc(Nc3ncc(F)c(Nc4cccc(O)c4)n3)cc2N1` [Compound R909238, N2-(1,4-Benzoxazin-3-on-6-yl)-5-fluoro-N4-(3-hydroxyphenyl)-2,4-pyrimidinediamine], the IC50 is < 0.22 µM in assay [2] (setting [7]); 0.521 µM in assay [2] (setting [8]); 0.432 µM in assay [2] (setting [9]); < 0.22 µM in assay [2] (setting [5]); < 0.22 µM in assay [2] (setting [10]).

Regarding `Fc1ccc(Nc2ncc(F)c(Nc3ccc(F)cc3)n2)cc1` [Compound R926224, N2,N4-Bis(4-fluorophenyl)-5-fluoro-2,4-pyrimidinediamine], the IC50 in assay [1] (Mus musculus), in assay [2] (setting [5]) and in assay [4] (setting [6]) was > 10 µM throughout.

Consider `Fc1ccc(Nc2ncc(F)c(Nc3ccc4c(c3)OCCO4)n2)cc1Cl` [Compound R926218, N2-(3-Chloro-4-fluorophenyl)-N4-(3,4-ethylenedioxyphenyl)-5-fluoro-2,4-pyrimidinediamine], for which the IC50 in assay [1] (Mus musculus), in assay [2] (setting [5]) and in assay [4] (setting [6]) was > 10 µM in each case.

Consider `Fc1ccc(Nc2ncc(F)c(Nc3ccc4c(c3)OCCO4)n2)cc1` [Compound R926220, N4-(3,4-Ethylenedioxyphenyl)-N2-(4-fluorophenyl)-5-fluoro-2,4-pyrimidinediamine], for which the IC50 in assay [1] (Mus musculus), in assay [2] (setting [5]) and in assay [4] (setting [6]) was > 10 µM throughout.

`CCc1ccc(Nc2ncc(F)c(Nc3ccc(CC)cc3)n2)cc1` [Compound R926234, N2,N4-Bis(4-ethylphenyl)-5-fluoro-2,4-pyrimidinediamine]: the IC50 in assay [2] (setting [5]) and in assay [4] (setting [6]) was > 10 µM in each case.

On to `CC(C)Oc1ccc(Nc2nc(Nc3ccc(OCCO)cc3)ncc2F)cc1` [Compound R935160, 5-Fluoro-N2-[4-(2-hydroxyethoxy)phenyl]-N4-(4-isopropoxyphenyl)-2,4-pyrimidinediamine], for which the IC50 is < 0.22 µM in assay [2] (setting [7]); 0.876 µM in assay [2] (setting [8]); 0.484 µM in assay [2] (setting [9]); < 0.22 µM in assay [2] (setting [5]); 0.317 µM in assay [2] (setting [10]); > 10 µM in assay [3] (setting [11]). Moreover, the IC50 in assay [4] (setting [12]) stood at 0.202 µM.

Take `CCOc1cccc(Nc2ncc(F)c(Nc3cccc(OCC)c3)n2)c1` [Compound R926064, N2,N4-Bis(3-ethoxyphenyl)-5-fluoro-2,4-pyrimidinediamine]: the results for the IC50 in assay [1] (Mus musculus), in assay [2] (setting [5]) and in assay [4] (setting [6]) were 7.3 µM, 5.9 µM and 6.2 µM, respectively.

In the case of `CCOC(=O)c1cccc(Nc2ncc(F)c(Nc3cccc(C(=O)OCC)c3)n2)c1` [Compound R926228, N2,N4-Bis(3-ethoxycarbonylphenyl)-5-fluoro-2,4-pyrimidinediamine], the IC50 in assay [2] (setting [5]) and in assay [4] (setting [6]) was > 10 µM each time.

Consider `CC(C)(C)c1ccc(Nc2ncc(F)c(Nc3ccc(C(C)(C)C)cc3)n2)cc1` [Compound R926222, N2,N4-Bis(4-tert-butylphenyl)-5-fluoro-2,4-pyrimidinediamine], for which the IC50 in assay [1] (Mus musculus), in assay [2] (setting [5]) and in assay [4] (setting [6]) was > 10 µM each time.

Consider `CCOc1ccc(Nc2cc(Cl)nc(Nc3ccc(OCC)cc3)n2)cc1` [Compound R926072, N2,N4-Bis(4-ethoxyphenyl)-6-chloro-2,4-pyrimidinediamine], for which the IC50 in assay [1] (Mus musculus), in assay [2] (setting [5]) and in assay [4] (setting [6]) was > 10 µM each time.

`COc1cccc(Nc2ncc(F)c(Nc3cccc(OC)c3)n2)c1` [Compound R926065, N2,N4-Bis(3-methoxyphenyl)-5-fluoro-2,4-pyrimidinediamine]: the results for the IC50 in assay [1] (Mus musculus), in assay [2] (setting [5]) and in assay [4] (setting [6]) were > 10 µM, > 10 µM and 3.5 µM, respectively.

For `Cc1ccc(Nc2ncc(F)c(Nc3ccc(C)cc3)n2)cc1` [Compound R926225, N2,N4-Bis(4-methylphenyl)-5-fluoro-2,4-pyrimidinediamine], the IC50 in assay [1] (Mus musculus), in assay [2] (setting [5]) and in assay [4] (setting [6]) was > 10 µM in each case.

As to `CCc1ccc(Nc2ncc(F)c(Nc3ccc4c(c3)OCCO4)n2)cc1` [Compound R926237, N4-(3,4-Ethylenedioxyphenyl)-N2-(4-ethylphenyl)-5-fluoro-2,4-pyrimidinediamine], the IC50 in assay [2] (setting [5]) worked out at 1.9 µM; in assay [3] (setting [11]), 6.2 µM; in assay [4] (setting [12]), 1.21 µM.

For `Fc1ccc(Nc2ncc(F)c(Nc3ccc(F)c(Cl)c3)n2)cc1Cl` [Compound R926223, N2,N4-Bis(3-chloro-4-fluorophenyl)-5-fluoro-2,4-pyrimidinediamine], the IC50 in assay [1] (Mus musculus), in assay [2] (setting [5]) and in assay [4] (setting [6]) was > 10 µM in each case.

On to `CCOc1ccc(Nc2ccnc(Nc3ccc(OCC)cc3)n2)cc1` [Compound R926069, N2,N4-Bis(4-ethoxyphenyl)-2,4-pyrimidinediamine], for which the IC50 was determined as 4.4 µM in assay [1] (Mus musculus), 4.5 µM in assay [2] (setting [5]) and 9.1 µM in assay [4] (setting [6]).

In the case of `Fc1cnc(Nc2ccc(N3CCOCC3)cc2)nc1Nc1ccc(N2CCOCC2)cc1` [Compound R926114, N2,N4-Bis[4-(N-morpholino)phenyl]-5-fluoro-2,4-pyrimidinediamine], the IC50 in assay [1] is > 10 µM.

With `O=C(NCCO)c1cc2cc(Nc3ncc(F)c(Nc4ccc5c(c4)OCCO5)n3)ccc2o1` [Compound R926498, N4-(3,4-Ethylenedioxyphenyl)-5-fluoro-N2-[2-(N-2-hydroxyethylamino)carbonylbenzofuran-5-yl]-2,4-pyrimidinediamine], the IC50 in assay [2] (setting [7]) was < 0.22 µM; in assay [2] (setting [8]), 0.995 µM; in assay [2] (setting [9]) it was 0.614 µM; in assay [2] (setting [5]), < 0.22 µM; in assay [2] (setting [10]) it was 0.515 µM; in assay [3] (setting [11]), > 10 µM. In addition, the IC50 in assay [4] (setting [12]) amounted to 0.209 µM.

Consider `OCc1cc2cc(Nc3ncc(F)c(Nc4cccc(O)c4)n3)ccc2o1` [Compound R926707, 5-Fluoro-N2-[2-(hydroxymethyl)benzofuran-5-yl]-N4-(3-hydroxyphenyl)-2,4-pyrimidinediamine], for which the IC50 in assay [2] (setting [7]) is < 0.056 µM; in assay [2] (setting [8]), 0.39 µM; in assay [2] (setting [9]) it was 0.088 µM; in assay [2] (setting [5]), < 0.056 µM; in assay [2] (setting [10]), < 0.056 µM; in assay [3] (setting [11]) it was > 10 µM. The IC50 in assay [4] (setting [12]) amounted to 0.214 µM.

As to `Fc1cccc(Nc2ncc(F)c(Nc3ccc4c(c3)OCCO4)n2)c1` [Compound R926221, N4-(3,4-Ethylenedioxyphenyl)-N2-(3-fluorophenyl)-5-fluoro-2,4-pyrimidinediamine], the IC50 in assay [1] (Mus musculus) was > 10 µM; in assay [2] (setting [5]) it was 9.9 µM; in assay [4] (setting [6]), 8.5 µM.
